The source of these data is patent publication US4476117A, “Dimers of peptide amides” (Imperial Chemical Industries PLC, priority 1982, dated 1984).

The nature of the data set: tolerance in the rat, subcutaneous dose. Format: in vivo. The protocol:
As an indication of the lack of toxicity of a specific compound of the invention, namely [diallyl-Tyr-Gly-Gly-Phe-Leu-NH-CH2 -]2, that compound is tolerated in the rat at a subcutaneous dose of at least 15 mg./kg.

Numbered stars: 1 amine (or outer) side, 2 acyl side, 3 side chain; on linkers, the order of the positions; unused ones are H or OH. Bridge positions count the residues as written; N and C are the ends. Peptide text beside a SMILES is read from it. I, II: the chains in the order shown. * marks the point of attachment. Tyr(Nα,Nα-allyl2) = C=CCN(CC=C)[C@@H](Cc1ccc(O)cc1)C(=O)*; Ethylenediamine = C(CN[*:2])N[*:1]

In the case of `C=CCN(CC=C)[C@@H](Cc1ccc(O)cc1)C(=O)NCC(=O)NCC(=O)N[C@@H](Cc1ccccc1)C(=O)N[C@@H](CC(C)C)C(=O)NCCNC(=O)[C@H](CC(C)C)NC(=O)[C@H](Cc1ccccc1)NC(=O)CNC(=O)CNC(=O)[C@H](Cc1ccc(O)cc1)N(CC=C)CC=C` [Example 1, (diallyl-Tyr-Gly-Gly-Phe-Leu-NH-CH2 -)2 bis-trifluoroacetate] (I: {Tyr(Nα,Nα-allyl2)}-GGFL / II: {Tyr(Nα,Nα-allyl2)}-GGFL; linker I:C-II:C via Ethylenediamine), the tolerated subcutaneous dose entry is “at least 15 mg./kg”.
